# US10611750B2, “Tetrahydroquinoline compositions as bet bromodomain inhibitors” (FORMA Therapeutics, Inc., priority 2013, dated 2020)
# Legend:
# [1] = system: acute myelocytic leukemia (AML) cell line MV4-11; assay: Oncology cell growth assay (3-day proliferation, CellTiter-Glo); format: cell-based; settings: Homo sapiens, MV4-11, 72 h, MV4-11 cells, 3000 cells/well, compounds listed under IC50 range headings, read-out: MV411 IC50 (gIC50, inhibition of proliferation)
# Description: The impact of Example compounds on cancer cell proliferation was determined using the acute myelocytic leukemia (AML) cell line MV4-11 (ATCC) in a 3-day proliferation assay. MV4-11 cells were maintained in RPMI 1640 media supplemented with 10% FBS at 37° C. and an atmosphere of 5% CO2. For compound testing, compound dilutions series were prepared in DMSO via a 3-fold serial dilution from 2 mM to 0.001 mM in 384-well white flat bottom plates. The final compound concentrations in the wells were 10, 3.3, 1.1, 0.37, 0.12, 0.041, 0.013 and 0.0045 μM. MV4-11 cells were plated at a density of 3000 cells/well in final volume of 50 μl culture media and incubated for 72 hours. […] Luminescent signal from the CellTiter-Glo assay was read on an EnVision multilabel plate reader (PerkinElmer). Values for the concentration that inhibited cell growth by 50% (gIC50) between the DMSO control and background control (no cells) were determined using IDBS Activity Base software with a four parameter logistic curve fit by the equation y=A+((B−A)/(1+((C/x)^D))), wherein A denotes the bottom plateau of the curve, B denotes the top plateau of the curve, C denotes the x value at the middle of the curve, D denotes the slope factor, x denotes the original known x values, and y denotes the original known y values. Data was fitted using the Levenburg Marquardt algorithm.
# [2] = molecular target: T1, BRD4 Bromodomain 1 (BRD4 BD1) (Homo sapiens, UniProt O60885); assay: AlphaScreen binding assay, BRD4 BD1; settings: His-tagged BRD4 BD1 50 nM, biotinylated H4 (1-21) K5/8/12/16 tetra-acetylated peptide 50 nM, compounds listed under IC50 range headings
# T1 construct: 44-168 and BRD4 BD2
# Description: The binding of Example compounds to BRD4 Bromodomain 1 and BRD4 Bromodomain 2 was assessed using 384-well AlphaScreen assay technology. His-epitope tagged BRD4 BD144-168 and BRD4 BD2333-460 were cloned, expressed, and purified to homogeneity. BRD4 BD1 and BRD4 BD2 binding and inhibition was assessed by monitoring the engagement of biotinylated Histone H4 (1-21) K5/8/12/16 tetra-acetylated peptide with the targets using the AlphaScreen technology (PerkinElmer). Specifically, in a 384-well black or white flat bottom plate, BRD4 BD1 (50 nM final) or BRD4 BD2 (100 nM final) was combined with peptide (50 nM final for BD1 or 100 nM final for BD2) in 50 mM HEPES (pH 7.3), 100 mM NaCl, 0.1% (w/v) BSA, and 0.01% (w/v) Triton X-100 either in the presence of DMSO (final 1.25% DMSO) or compound dilution series in DMSO. Alpha streptavidin donor beads and Nickel-chelate acceptor beads were added to a final concentration of 10 μg/ml each. After a minimum of 1 hour equilibration, plates were read on a BMG PHERAstar FS multi-label reader (BMG LabTech). The half maximal inhibitory concentration (IC50) values were calculated using IDBS Activity Base software with a four parameter logistic curve fit by the equation y=A+((B−A)/(1+((C/x)^D))), wherein A denotes the bottom plateau of the curve, B denotes the top plateau of the curve, C denotes the x value at the middle of the curve, D denotes the slope factor, x denotes the original known x values, and y denotes the original known y values. Data was fitted using the Levenburg Marquardt algorithm.
Compound,IC50 [1] [nM],IC50 [2] [nM]
"C[C@H]1CCc2c(ccc(-c3ccnn3C3CCNCC3)c2OC2CCC2)N1C(=O)C1CC1 [I-306, ((2S)-5-cyclobutoxy-2-methyl-6-(1-(piperidin-4-yl)-1H-pyrazol-5-yl)-3,4-dihydroquinolin-1(2H)-yl)(cyclopropyl)methanone]",> 1000,≥ 10000
"COC(=O)N1c2ccc(-c3cnn(C4CCNCC4)c3)c(Oc3ccccc3OC)c2CC[C@@H]1C [I-197, (S)-methyl 5-(2-methoxyphenoxy)-2-methyl-6-(1-(piperidin-4-yl)-1H-pyrazol-4-yl)-3,4-dihydroquinoline-1(2H)-carboxylate]",< 500,100 to 1000
"C[C@H]1CCc2c(ccc(-c3cnn(C4CC4)c3NS(C)(=O)=O)c2OC2CCC2)N1C(=O)C1CC1 [I-300, N-(4-((2S)-5-cyclobutoxy-1-(cyclopropanecarbonyl)-2-methyl-1,2,3,4-tetrahydroquinolin-6-yl)-1-cyclopropyl-1H-pyrazol-5-yl)methanesulfonamide]",> 1000,≥ 10000
"COC(=O)N1c2ccc(-c3cn(C)c(N4CCNCC4)n3)c(OC3CCC3)c2CC[C@@H]1C [I-315, (S)-methyl 5-cyclobutoxy-2-methyl-6-(1-methyl-2-(piperazin-1-yl)-1H-imidazol-4-yl)-3,4-dihydroquinoline-1(2H)-carboxylate]",< 500,100 to 1000
"C[C@H]1CCc2c(ccc(-c3cn(C)nn3)c2Oc2cccc(F)c2)N1C(=O)C1CC1 [I-235, (S)-cyclopropyl(5-(3-fluorophenoxy)-2-methyl-6-(1-methyl-1H-1,2,3-triazol-4-yl)-3,4-dihydroquinolin-1 (2H)-yl)methanone]",< 500,1000 to 10000
"COC(=O)N1c2ccc(-c3cnn(C4CNC4C)c3)c(Oc3ccc(F)cc3)c2CC[C@@H]1C (stereo partly drawn) [I-298, methyl (2S)-5-(4-fluorophenoxy)-2-methyl-6-(1-(2-methylazetidin-3-yl)-1H-pyrazol-4-yl)-3,4-dihydroquinoline-1(2H)-carboxylate]",< 500,100 to 1000
"COC(=O)N1c2ccc(-c3c[nH]c(C4CCNCC4)n3)c(OC3CCC3)c2CC[C@@H]1C [I-303, methyl (S)-5-cyclobutoxy-2-methyl-6-(2-(piperidin-4-yl)-1H-imidazol-4-yl)-3,4-dihydroquinoline-1(2H)-carboxylate]",< 500,100 to 1000
"COC(=O)N1c2ccc(-c3cnn(C4CNC4)c3)c(Oc3ccccc3F)c2CC[C@@H]1C [I-261, (S)-methyl 6-(1-(azetidin-3-yl)-1H-pyrazol-4-yl)-5-(2-fluorophenoxy)-2-methyl-3,4-dihydroquinoline-1(2H)-carboxylate]",< 500,100 to 1000
"COC(=O)N1c2ccc(-c3csc(NC(C)=O)n3)c(OC3CCC3)c2CC[C@@H]1C [I-131, (S)-methyl 6-(2-acetamidothiazol-4-yl)-5-cyclobutoxy-2-methyl-3,4-dihydroquinoline-1(2H)-carboxylate]",500 to 1000,1000 to 10000
"CC(=O)N1c2c(F)cc(-c3cnn(C4CCNCC4)c3)c(OC3CCC3)c2CC[C@@H]1C [I-105, (S)-1-(5-cyclobutoxy-8-fluoro-2-methyl-6-(1-(piperidin-4-yl)-1H-pyrazol-4-yl)-3,4-dihydroquinolin-1(2H)-yl)ethanone]",< 500,100 to 1000
"COC(=O)N1c2c(F)cc(-c3cnn(C4CC4)c3)c(Oc3ccccc3)c2CC[C@@H]1C [I-239, (S)-methyl 6-(1-cyclopropyl-1H-pyrazol-4-yl)-8-fluoro-2-methyl-5-phenoxy-3,4-dihydroquinoline-1(2H)-carboxylate]",< 500,1000 to 10000
"COC(=O)N1c2ccc(-c3csc(C4(O)CNC4)n3)c(OC3CCC3)c2CC[C@@H]1C [I-314, (S)-methyl-5-cyclobutoxy-6-(2-(3-hydroxyazetidin-3-yl)thiazol-4-yl)-2-methyl-3,4-dihydroquinoline-1(2H)-carboxylate]",> 1000,1000 to 10000
"CC(=O)Nc1c(-c2ccc3c(c2OC2CCC2)CC[C@H](C)N3C(=O)C2CC2)cnn1C1CC1 [I-301, N-(4-((2S)-5-cyclobutoxy-1-(cyclopropanecarbonyl)-2-methyl-1,2,3,4-tetrahydroquinolin-6-yl)-1-cyclopropyl-1H-pyrazol-5-yl)acetamide]",> 1000,1000 to 10000
"COC(=O)N1c2ccc(-c3cnn(C4CCN(C)CC4OC)c3)c(Oc3ccc(F)cc3)c2CC[C@@H]1C (stereo partly drawn) [I-293, (2S)-methyl 5-(4-fluorophenoxy)-6-(1-(3-methoxy-1-methylpiperidin-4-yl)-1H-pyrazol-4-yl)-2-methyl-3,4-dihydroquinoline-1(2H)-carboxylate]",< 500,100 to 1000
"COC(=O)N1c2ccc(-c3cnn(C4CCNCC4)c3)c(Oc3ccccn3)c2CC[C@@H]1C [I-96, (S)-methyl 2-methyl-6-(1-(piperidin-4-yl)-1H-pyrazol-4-yl)-5-(pyridin-2-yloxy)-3,4-dihydroquinoline-1(2H)-carboxylate]",< 500,100 to 1000
"COC(=O)N1c2ccc(-c3cnn(C4CCNCC4)c3)c(Oc3cc(F)ccc3F)c2CC[C@@H]1C [I-273, (S)-methyl 5-(2,5-difluorophenoxy)-2-methyl-6-(1-(piperidin-4-yl)-1H-pyrazol-4-yl)-3,4-dihydroquinoline-1(2H)-carboxylate]",< 500,100 to 1000
"C[C@H]1CCc2c(ccc(-c3cnn(C4CNC4)c3)c2Oc2cc(F)cc(F)c2)N1C(=O)C1CC1 [I-181, (S)-(6-(1-(azetidin-3-yl)-1H-pyrazol-4-yl)-5-(3,5-difluorophenoxy)-2-methyl-3,4-dihydroquinolin-1(2H)-yl)(cyclopropyl)methanone]",< 500,100 to 1000
"COC(=O)N1c2ccc(-c3cnn(C4CC5CN(C)CC5C4)c3)c(Oc3ccc(F)cc3)c2CC[C@@H]1C (stereo partly drawn) [I-250, (2S)-methyl 5-(4-fluorophenoxy)-2-methyl-6-(1-(2-methyl-octahydrocyclopenta[c]pyrrol-5-yl)-1H-pyrazol-4-yl)-3,4-dihydroquinoline-1(2H)-carboxylate]",< 500,100 to 1000
"COc1cccc(Oc2c(-c3cn(C)nn3)ccc3c2CC[C@H](C)N3C(=O)C2CC2)c1 [I-234, (S)-cyclopropyl(5-(3-methoxyphenoxy)-2-methyl-6-(1-methyl-1H-1,2,3-triazol-4-yl)-3,4-dihydroquinolin-1 (2H)-yl)methanone]",< 500,1000 to 10000
"C[C@H]1CCc2c(ccc(-n3nccn3)c2Oc2ccccc2)N1C(=O)C1CC1 [I-327, (S)-cyclopropyl(2-methyl-5-phenoxy-6-(2H-1,2,3-triazol-2-yl)-3,4-dihydroquinolin-1(2H)-yl)methanone]",> 1000,≥ 10000
"COC(=O)N1c2ccc(-c3cnn(C4CCNC(=O)C4)c3)c(OC3CCC3)c2CC[C@@H]1C (stereo partly drawn) [I-296, (2S)-methyl 5-cyclobutoxy-2-methyl-6-(1-(2-oxopiperidin-4-yl)-1H-pyrazol-4-yl)-3,4-dihydroquinoline-1(2H)-carboxylate]",< 500,100 to 1000
"COC(=O)N1c2ccc(-n3cc(N4CCOCC4)cn3)c(Oc3ccccc3)c2CC[C@@H]1C [I-339, (S)-methyl 2-methyl-6-(4-morpholino-1H-pyrazol-1-yl)-5-phenoxy-3,4-dihydroquinoline-1(2H)-carboxylate]",> 1000,1000 to 10000
"CC(=O)N1c2c(F)cc(-c3cn(C)nn3)c(Oc3ccccc3)c2CC[C@@H]1C [I-323, (S)-1-(8-fluoro-2-methyl-6-(1-methyl-1H-1,2,3-triazol-4-yl)-5-phenoxy-3,4-dihydroquinolin-1(2H)-yl)ethanone]",< 500,1000 to 10000
